Values of other authors, collected in patent US10665326B2, “Deep proteome markers of human biological aging and methods of determining a biological aging clock” (INSILICO MEDICINE, INC., priority 2017, dated 2020).

Tests used:
[1] = system: pre-senescent and senescent cells

Compound: 740 Y-P
- mitogenic response (muscle cells): stimulates a mitogenic response

Compound: O=c1c(O)c(-c2ccc(O)c(O)c2)oc2cc(O)cc(O)c12 [quercetin]
- killing of pre-senescent and senescent cells [1]: able to kill pre-senescent and senescent cells

Compound: Tocotrienols
- killing of pre-senescent and senescent cells [1]: able to kill pre-senescent and senescent cells
